Laboratory results published in patent US20240188561A1, “ADDITIVES FOR ENHANCING THE PESTICIDAL EFFECTIVENESS OF PESTICIDAL MICROORGANISMS” (priority 2021, published 2024).

Experiments:
Pseudomonas fluorescens = experiment: Additive compatibility with microbial growth (growth slope by OD 620 nm); assay type: cell-based; conditions: additive 0.01-5 %, exposed 4 hours at 16° C., then tryptic soy broth 30° C., slope compared to 0% sample
Bacillus firmus = experiment: as above; assay type: cell-based; conditions: additive 0.01-5 %, exposed 4 hours at 16° C., then tryptic soy broth 30° C., slope compared to 0% sample
[1] = tested on: Downy Mildew (Plasmopara viticola); experiment: Spray trial on first year grape vines, Downy Mildew infection; assay type: in vivo; conditions: in words
Method: Eight solutions were prepared as described in Table 2a. These solutions were sprayed on first year grape vines showing no signs of Downy Mildew (Plasmopara viticola). […] Six of the solutions included Additive Blend 1 (a 50:50 blend of POE 10 soybean oil and PEG 400 dioleate).
Four applications were made over a month to the same grape vines. At the end of the month, the infection rates of Downy Mildew were evaluated by comparing to untreated grape vines.
Eight solutions were prepared as described in Table 6a. These solutions were sprayed on first year grape vines showing no signs of Downy Mildew (Plasmopara viticola). […] Six of the solutions included PEG 400 dioleate.

[2] = tested on: Bacillus amyloliquefaciens; experiment: Additive compatibility with microbial growth (growth slope by OD 620 nm); assay type: cell-based; conditions: additive 0.01-5 %, exposed 4 hours at 16° C., then tryptic soy broth 30° C., slope compared to 0% sample
Bacillus subtilis = experiment: as above; assay type: cell-based; conditions: additive 0.01-5 %, exposed 4 hours at 16° C., then tryptic soy broth 30° C., slope compared to 0% sample

Substance: PEG 400 dioleate [v-3]
- Influence of additive on microbial growth slope (compatibility), Pseudomonas fluorescens (Pseudomonas fluorescens): E (E represents an Enhancing result)
- Influence of additive on microbial growth slope (compatibility), Bacillus firmus (Bacillus firmus): E (E represents an Enhancing result)
- Control of Downy Mildew (lower %-Infection) when additive was added to Serifel Biofungicide spray solutions [1]: improved control
- Influence of additive on microbial growth slope (compatibility), Bacillus amyloliquefaciens [2]: E (E represents an Enhancing result)
- Influence of additive on microbial growth slope (compatibility), Bacillus subtilis (Bacillus subtilis): E (E represents an Enhancing result)
